According to patent US12606561B2, “Substituted pyrazolo[1,5-a][1,3,5]triazines as CDK inhibitors” (QURIENT CO., LTD., priority 2018, dated 2026):

Tests used:
[1] = tested on: MV4-11; assay: Cellular MV4-11 viability assay (CellTiter-Glo, 72 hours); format: cell-based; conditions: Homo sapiens; MV4-11 cells
Procedure, shortened: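 Cells grown in RPMI-1640 with 10% FBS were seeded at 1×10^4/well (MV4-11), 5×10^3 (OVCAR-3) or 1×10^3 (A2780), then dosed 24 h later with compound at 0.0015 uM to 10 uM, DMSO <0.1%. Viability was read by CellTiter-Glo luminescence after 72 h at 37° C, in duplicate.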

[2] = molecular target: 28 CDKs family protein kinases (Homo sapiens, UniProt Q00535); assay: In vitro IC50 profile for CDKs family kinase (33PanQinase Activity Assay, ProQinase); format: biochemical; design: purchased ProQinase GmbH; host or cells: Sf9 insect cells or E. coli; conditions: CDK5/p35NCK; read-out: CDK7 selectivity profile in CDKs family, IC50
Protocol: The IC50 profile of compound 11 was determined using 28 CDKs family protein kinases through ProQinase GmbH (Freiburg, Germany). All the protocol and materials had been provided by ProQinase GmbH. Briefly, in the process, 90 μl H2O were added to each well of a compound dilution plate. To minimize potential precipitation, the H2O was added to the plate only a few minutes before the transfer of the compound solutions into the assay plates. The plate was shaken thoroughly, resulting in a “compound dilution plate/10% DMSO”. The compound dilution plate(s) were discarded at the end of the working day. For the assays (see below), 5 μl solution from each well of the compound dilution plate were transferred into the assay plates. The final volume of the assay was 50 μl. […] Kinases from external vendors, Carna Biosciences Inc.; Invitrogen Corp.; and Millipore Corp., were expressed, purified and quality-controlled by virtue of the vendors readings. […] Incorporation of ^33Pi was determined with a microplate scintillation counter (Microbeta, Wallac). […] The residual activity (in %) for each well of a particular plate was calculated by using the following formula: Res. Activity (%)=100×[(cpm of compound−low control)/(high control−low control)].

[3] = molecular target: T1, CDK5/p25 (Homo sapiens, UniProt Q00535); assay: Enzymatic assay for CDK5 (LANCE Ultra kinase assay, FRET based); format: biochemical; conditions: ATP at Km
T1 construct: purchased Invitrogen PR8543B
Procedure, shortened: (§1)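 Inhibition was measured at ATP Km with 68 nM ULight-MBP peptide and CDK2/Cyclin A ([…]) or CDK5/p25 ([…]), using 8-dose 4-fold compound dilutions from DMSO. Kinase reaction ran 60 min at 23° C, then Eu anti-phospho-MBP plus EDTA were added for another 60 min before the fluorescence read.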

[4] = molecular target: T2, CDK2/Cyclin A (Homo sapiens, UniProt P24941); assay: Enzymatic assay for CDK2 (LANCE Ultra kinase assay, FRET based); format: biochemical; conditions: ATP at Km
T2 construct: purchased Invitrogen PV6290
Procedure, shortened: as §1

Sequence of 28 CDKs family protein kinases (Q00535 whole entry): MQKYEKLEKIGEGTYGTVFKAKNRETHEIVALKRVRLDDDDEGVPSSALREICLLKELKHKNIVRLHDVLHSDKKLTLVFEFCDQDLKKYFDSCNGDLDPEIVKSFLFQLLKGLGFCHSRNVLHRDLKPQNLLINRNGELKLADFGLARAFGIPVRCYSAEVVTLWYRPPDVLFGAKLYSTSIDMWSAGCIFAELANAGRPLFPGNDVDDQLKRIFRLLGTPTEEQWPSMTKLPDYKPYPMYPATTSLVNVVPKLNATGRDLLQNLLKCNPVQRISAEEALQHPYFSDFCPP
Sequence of 28 CDKs family protein kinases (Q15078 whole entry partner): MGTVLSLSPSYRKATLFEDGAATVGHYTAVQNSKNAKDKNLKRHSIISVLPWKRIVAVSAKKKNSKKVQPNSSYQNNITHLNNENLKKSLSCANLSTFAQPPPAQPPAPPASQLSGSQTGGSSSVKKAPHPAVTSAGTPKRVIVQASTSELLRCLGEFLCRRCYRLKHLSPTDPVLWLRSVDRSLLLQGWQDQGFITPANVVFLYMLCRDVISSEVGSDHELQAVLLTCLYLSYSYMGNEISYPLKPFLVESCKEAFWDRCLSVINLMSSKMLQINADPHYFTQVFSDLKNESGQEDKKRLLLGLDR
T1 sequence (Q00535 whole entry): as the sequence (Q00535 whole entry) above
T1 sequence (Q15078 99-307 partner limits assumed): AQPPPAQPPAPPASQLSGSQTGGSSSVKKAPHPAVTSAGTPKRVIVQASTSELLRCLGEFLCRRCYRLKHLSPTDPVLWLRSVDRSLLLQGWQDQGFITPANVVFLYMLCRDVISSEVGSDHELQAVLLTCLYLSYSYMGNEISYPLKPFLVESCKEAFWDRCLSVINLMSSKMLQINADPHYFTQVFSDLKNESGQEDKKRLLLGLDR

CC(C)c1cnn2c(NCc3ccccc3-c3nccc4cc(NC(=O)/C=C/CN(C)C)ccc34)nc(N3CCC(N)CC3)nc12 [Compound 11]
IC50 [1]: < 1000 nM | IC50 [2]: 7860 nM | IC50 [3]: > 1000 nM | IC50 [4]: > 1000 nM
